These are literature values, as cited in US5277910A, “Process for the preparation of a pharmaceutical composition selectively lowering the blood-lipid level” (priority 1991, dated 1994).

For one data set, the system named is monkeys. As to conditions: monkeys fed with alfalfa; in words.
The conditions of data set [1]: in words.

For `N=C(N)NOCCC(N)C(=O)O` (centres unmarked) [Canavanine, 2-amino-4-(guanidinooxy)-butyric acid], the induced syndrome result in the data set on monkeys is on record as “induces a syndrome resembling lupus erithemathosus”.
Consider `O=c1oc2cc(O)ccc2c2oc3cc(O)ccc3c12` [coumestrol], for which the uterotrophic activity entry in data set [1] is on record as “high uterotrophic activity”.
